Data from patent US4780476A, “Azoniaspironortropanol esters as asthma therapeutics and broncholytics” (Madaus GmbH & Co., priority 1985, dated 1988).
Entries after “also recorded” stand apart in the source; their conditions may differ. Structures can show the parent of a compound that is named as a salt.

Legend:
[1] = system: awake guinea pig (cholinergically-induced bronchial cramps); assay: inhalative provocation with acetyl-β-methylcholine chloride aerosol on awake guinea pigs (broncholytic/protective action); format: in vivo; conditions: for EC50: Cavia porcellus, read-out: EC50, average effective concentration w of acetyl-β-methylcholine chloride (provocation substance) after pre-treatment; for probit analysis reaction % calculated: probit regression; for probit analysis reaction % observed: animals reacting with dyspnoea
Protocol: animal strain: Pirbright white test substance: trospium chloride (MP 194) (M.W. 428) dosage: 3×10^-7 mole ml^-1 kg^-1 mode of administration: intraperitoneally test substance: dehydrotrospium chloride (WG 71) (M.W. 426) […]
reference substance: atropine hydrochloride (Serva; M.W. 325.8) […]
reference substance: isoproterenol (Fluka; M.W. 247.72) dosage: […]
further substances: acetyl-β-methylcholine chloride (Sigma; M.W. 195.7) mode of administration: 0.5 ml. min^-1 by inhalation.
The guinea pigs intended for an experiment are, after an acclimatization time of at least 8 days, subjected twice to an aerosol of 0.1% acetyl-β-methylcholine chloride solution since, as is known from experience, during the first two inhalative provocations, the animals react with more distinct respiratory disturbances than in the case of the subsequent provocations (adaptation). If, in the case of the two inhalation phases, a nonsensitivity (absence of respiratory disturbances) is observed towards the exposure, these animals are excluded from the actual experiment.
For the purpose of aerosol provocation, the guinea pigs are placed individually in an inhalation chamber (see Section 3.6 hereinafter) in which 0.5 ml. of solution per minute are atomized as droplet aerosol by means of a special nozzle (Rhema, Hofheim, Germany). […] With the help of a stopwatch, there is recorded the time from the commencement of inhalation to the appearance of the asphyctic state; the animals are immediately removed from the inhalation chamber and, as a rule, recover in a very short period of time (recovery of consciousness and normalization of breathing). If, within 180 seconds, no dysponea occurs, the inhalation is discontinued.
One aerosol concentration is tested per test day; the time between the individual aerosol provocations is at least 1 week.
The inhalation chamber is a Plexiglass container specially made for this purpose, the lid of which can be closed in an air-tight manner by means of rubber sealing and grip closure means. The internal measurements of the chamber are 285×190×180 mm., which corresponds to a volume of about 9.75 liters. The special nozzle (Rhema, Hofheim, Germany, order No. 504104) is fixed to a recess on the lid and ensures a uniform supply of the available chamber space with the aerosol. The provocation solution is supplied to the nozzle via an infusion pump (Braun, Melsungen, Germany) (0.5 ml./minute) and there atomized with a superpressure of 180 kPa from an attached pressure gas bottle (artificial air, KW-free). For reasons of safety, the aerosol provocation is carried out under a ventilator.
The EC50, as well as the related confidence interval (p>95%), are determined from the probit regression lines of the percentage values (v. supra) provided with weight coefficients after line adaptation by the "maximum likelihood" method (10 iterations). Furthermore, there is examined the adaptation of the lines to the observed data by means of the chiquadrat test. For the evaluation, a calculation programme is commercially available (Olivetti).

[2] = biological target: T1, isolated tracheal spirals of the guinea pig (Cavia porcellus, UniProt H0W1Z3); assay: anticholinergic effectiveness on isolated tracheal spirals (antagonism against acetyl-β-methylcholine chloride); conditions: for antagonism against acetyl-β-methylcholine chloride / anticholinergic effectiveness (in words): isolated guinea pig tracheal spirals
T1 construct: the whole of the trachea is roughly freed beginning from the larynx up to the tracheal bifurcation, removed and transferred; from tissue; host or cells: isolated trachea (spiral strips) of male Pirbright white guinea pigs
T1 sequence (H0W1Z3 1-590): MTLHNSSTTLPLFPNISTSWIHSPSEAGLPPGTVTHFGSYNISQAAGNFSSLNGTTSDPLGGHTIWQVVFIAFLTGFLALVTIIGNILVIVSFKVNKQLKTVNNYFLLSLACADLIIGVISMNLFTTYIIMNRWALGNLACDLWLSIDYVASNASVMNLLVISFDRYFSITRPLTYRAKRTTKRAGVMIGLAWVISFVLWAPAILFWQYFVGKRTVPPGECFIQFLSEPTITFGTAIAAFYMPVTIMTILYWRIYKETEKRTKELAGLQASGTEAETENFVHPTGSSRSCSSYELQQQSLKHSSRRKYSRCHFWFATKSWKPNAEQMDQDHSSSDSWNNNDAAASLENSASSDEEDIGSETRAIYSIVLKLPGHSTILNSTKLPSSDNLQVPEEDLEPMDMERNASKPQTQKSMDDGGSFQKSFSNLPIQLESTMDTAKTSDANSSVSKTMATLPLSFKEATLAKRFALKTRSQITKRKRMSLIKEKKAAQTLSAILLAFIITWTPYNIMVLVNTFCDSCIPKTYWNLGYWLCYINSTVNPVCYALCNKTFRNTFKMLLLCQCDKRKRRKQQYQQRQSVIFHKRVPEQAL
Description: A model for this is the measurement of the anticholinergic effectiveness on isolated tracheal spirals of the guinea pig.
The test substance used was 3α-benziloyloxynortropane-8-spiro-1'-pyrrolidinium chloride (trospium chloride; MP 194), ipratropium bromide being used as comparison substance.
There is to be determined the anticholinergic effectiveness of MP 194 in comparison with the reference substance ipratropium bromide on the isolated tracheal spirals of the guinea pig.
3.1.1. animal species: guinea pig
3.1.2. animal strain: Pirbright white
3.3.1. test substance (test antagonist) trospium chloride (MP 194) (M.W. 428)
3.3.2. reference substance (reference antagonist) ipratropium bromide (Atrovent) (M.W. 412.4)
3.3.3.1. acetyl-β-methylcholine chloride (Sigma) (M.W. 195.7)
The guinea pig is stunned by a blow on the neck. Subsequently, the whole of the trachea is roughly freed beginning from the larynx up to the tracheal bifurcation, removed and transferred to tempered (37° C.) and carbogenized tyrode solution. After surrounding connective tissue has been removed as far as possible, the preparation is cut up spirally by means of fine scissors at an angle of about 45° and separated into two equal sized sections. After weighing, both preparations are provided proximally and distally with a silk thread. One thread serves for fixing the preparation by means of a loop to the bottom of the bath and the other is connected via a hook with the transducer above the bath vessel.
Subsequently, the preparations, corresponding to the calibration, are prestressed with about 80 mN and equilibrated from 50-100 minutes. During the equilibration phase, the nutrient solution in the bath vessels is renewed in 15 minute intervals. As soon as the resting muscle tonus of the preparation has stabilized, there takes place the cumulative addition of the agonist, whereby the addition of the next highest concentration first takes place when no further increase of contraction is recognisable (plateau). When the maximum contraction height of the preparation is achieved, the cumulative agonist addition is ended and the preparation is rinsed. After a further equilibration phase (v. supra), the cumulative addition of the agonist is repeated but this time in the presence of the test or reference antagonist.
3.6.1. The perfusion part consists of an L-shaped organ bath in the hollow space of which (longer limb) runs a double glass spiral through which the nutrient solution is passed into the actual bath vessel (28 ml. content; shorter limb). This bath vessel is divided into two chambers which are, however, connected together by two transverse connections. […] The inlet chambers as well as the feeding glass spirals are tempered from the outside to 37° C. by a separate liquid circulation. This tempering takes place with the help of a "Colora" ultra-thermostat type K (Colora Messtechnik GmbH, Dusseldorf, Germany) which serves as thermostat and pump. In order, in case of need, always to have available ready-for-use nutrient solution, above the organ bath is provided a double-walled storage container in which the nutrient solution is also tempered and carbogenised. This is connected via a glass stopcock and a polypropylene tube with double glass spiral in the interior of the organ bath.
3.6.2. The measurement and recording part includes a transducer (Statham-Universal-Zelle UC-2; Hugo Sachs Elektronic KG, Hugstetten, Germany). By means of a hanging-in weight, a force of 40 mN is produced on the transducer which passes as electrical signal via a connecting cable to a bridge amplifier. The amplification is smoothly so regulated that the force provided corresponds to a constant value on the scale or an analogous value on the millimeter paper of the recorder (dependent upon the amplification; see below). After fixing the organ, the preparation is prestressed to the doubled mark, corresponding to 80 mN. […]

[3] = pre-treatment 3×10^-7 mol ml^-1 kg^-1 i.p., 15 min before inhalation, w of acetyl-β-methylcholine chloride in atomised solution, control animals w=0.000539, higher = more protection
[4] = acetyl-β-methylcholine chloride w=0.000562, 10 tested, pre-treatment 3×10^-7 mol ml^-1 kg^-1 i.p.
[5] = acetyl-β-methylcholine chloride w=0.000562, pre-treatment 3×10^-7 mol ml^-1 kg^-1 i.p.
[6] = acetyl-β-methylcholine chloride w=0.001000, 10 tested (isoproterenol 9), pre-treatment 3×10^-7 mol ml^-1 kg^-1 i.p.
[7] = acetyl-β-methylcholine chloride w=0.001000, pre-treatment 3×10^-7 mol ml^-1 kg^-1 i.p.
[8] = acetyl-β-methylcholine chloride w=0.001780, pre-treatment 3×10^-7 mol ml^-1 kg^-1 i.p.
[9] = acetyl-β-methylcholine chloride w=0.001780, trospium chloride 10 tested, dehydrotrospium chloride 9, atropine 9, isoproterenol 8, pre-treatment 3×10^-7 mol ml^-1 kg^-1 i.p.
[10] = acetyl-β-methylcholine chloride w=0.003160, 10 tested (isoproterenol 9), pre-treatment 3×10^-7 mol ml^-1 kg^-1 i.p.
[11] = acetyl-β-methylcholine chloride w=0.003160, pre-treatment 3×10^-7 mol ml^-1 kg^-1 i.p.
[12] = acetyl-β-methylcholine chloride w=0.005620, 10 tested (isoproterenol 9), pre-treatment 3×10^-7 mol ml^-1 kg^-1 i.p.
[13] = acetyl-β-methylcholine chloride w=0.005620, pre-treatment 3×10^-7 mol ml^-1 kg^-1 i.p.

Row | Structure (SMILES) | EC50 [1, 3] [mg/L] | number of animals reacting [1, 4] | probit analysis reaction % calculated [1, 5] [%] | number of animals reacting [1, 6] | probit analysis reaction % observed [1, 7] [%] | probit analysis reaction % calculated [1, 7] [%] | probit analysis reaction % observed [1, 8] [%] | probit analysis reaction % calculated [1, 8] [%] | number of animals reacting [1, 9] | number of animals reacting [1, 10] | probit analysis reaction % observed [1, 11] [%] | probit analysis reaction % calculated [1, 11] [%] | number of animals reacting [1, 12] | probit analysis reaction % observed [1, 13] [%] | probit analysis reaction % calculated [1, 13] [%] | further results
1 | O=C(O[C@H]1C[C@H]2CC[C@@H](C1)[N+]21CCCC1)C(O)(c1ccccc1)c1ccccc1 [trospium chloride, 3α-benziloyloxynortropane-8-spiro-1'-pyrrolidinium chloride] | 2860 | 0 | 5.46 | 1 | 10.00 | 15.03 | 50.00 | 32.00 | 5 | 5 | 50.00 | 53.87 | 7 | 70.00 | 74.66 | broncholytic effectiveness compared with atropine and isoproterenol (in words) ([1]; 15 min after i.p. administration, equimolar dosages): comparable with or superior to the well known parasympatholytics atropine and the β-sympathomimetic isoproterenol; also recorded: greater effectiveness of the test substances, especially of trospium chloride, in comparison with the reference substances; probit analysis reaction % observed, correction according to Bliss ([1]; guinea pig, in vivo): 2.50; broncholytic effect (in words) ([1]; intraperitoneal, cholinergically-induced bronchial cramps, awake guinea pig): outstanding broncholytic effect; Kb ([2]; antagonism against acetyl-β-methylcholine chloride, read-out: pA2 ± s (converted)): 0.55 nM; quality of the antagonism (in words) ([2]; comparison of maximum effects in absence and presence of the antagonist, listed as MP 194): competitively antagonistically effective; also recorded: competitive antagonism; strength of activity compared with ipratropium bromide (in words) ([2]; comparison of pA2 values, t-test, listed as MP 194): equivalent to the reference substance ipratropium bromide; also recorded: does not differ significantly; also recorded: equal to the reference substance ipratropium bromide; antagonism against acetyl-β-methylcholine chloride / anticholinergic effectiveness (in words) ([2]; listed as MP 194): comparable, dosage-dependent antagonism; also recorded: clear anticholinergic effectiveness
2 | CN1[C@@H]2CC[C@H]1C[C@@H](OC(=O)C(CO)c1ccccc1)C2 (stereo partly shown) [atropine chloride, atropine hydrochloride, reference compound] | 1380 | 3 | 38.93 | 6 | 60.00 | 45.98 | 55.56 | 53.16 | 5 | 5 | 50.00 | 60.20 | 7 | 70.00 | 66.95 | probit analysis reaction % observed [1, 5]: 30.00%; EC50, average effective concentration w of acetyl-β-methylcholine chloride (provocation substance) after pre-treatment [1, 3]: 0.00138; antagonism against acetyl-β-methylcholine chloride / anticholinergic effectiveness (in words) [2]: dosage dependent antagonism
